Data: patent publication US9539307B2, “Compositions and methods for treating amyotrophic lateral sclerosis” (THE RESEARCH INSTITUTE AT NATIONWIDE CHILDREN'S HOSPITAL, priority 2012, dated 2017)

Legend:
PRF1 = test: Western blot of PRF1 knockdown in human astrocytes; assay type: cell-based
Excerpt: (§1) To knockdown PRF1 and GZMB levels in astrocytes, sequences from the RNAi Consortium lentiviral shRNA library were screened and relevant plasmids purchased from Open Biosystems. Clones TRCN0000077206 ([…] (SEQ ID NO: 19)) and TRCN0000032742 ([…] (SEQ ID NO: 20)) were used to target PRF1 and GZMB in mouse astrocytes, respectively. Clones TRCN0000007942 ([…] (SEQ ID NO: 21)) and TRCN0000006448 ([…] (SEQ ID NO: 22)) were used to knockdown PRF1 and GZMB in human astrocytes, respectively. Scrambled shRNA were used as controls for PRF1 ([…] (SEQ ID NO: 23)) and for GZMB ([…] (SEQ ID NO: 24)). […] Prior to addition to astrocytes, viral titer was obtained using Quick-titer lentivirus quantification kit follow manufacture's directions (CellBiolabs Inc, San Diego, Calif., USA).
(§2) Based on the levels of knockdown efficiency evaluated by western blot analysis, clones TRCN0000077206 ([…] (SEQ ID NO: 45)) and TRCN0000007942 ([…] (SEQ ID NO: 46)) were chosen to target PRF1 in mouse and human astrocytes, respectively. […]
(§3) Crude protein cell lysates were obtained using the Tissue Protein Extracting Reagent (Pierce, Rockford, Ill.) following manufacture recommendations. […] Bound primary antibody was detected by horseradish peroxidase conjugated secondary antibody (Jackson ImmunoResearch, West Grove, Pa.) followed by chemiluminescence using ECLTM Western Blotting Detection Reagents (GE Healthcare).

GZMB = test: Western blot of GZMB knockdown in human astrocytes; assay type: cell-based
Excerpt: as §1, §2, §3

## ACCTGAATCATGGCCACCTAA (chemistry not given here) [SEQ ID NO: 1]
PRF1
  PRF1 expression: efficiently ablate

## CATTGTCTCCTATGGACGAAA (expressed or natural sequence) [SEQ ID NO: 2]
GZMB
  GZMB expression: efficiently ablate
